# Entries after “also recorded” stand apart in the source; their conditions may differ.
# Columns and labels:
# [1] = target: TAP (Homo sapiens, UniProt Q03518+Q03519); test: TAP-dependent peptide transport of NST-F in Raji microsomes; type: biochemical; details: read-out: inhibition of TAP-dependent peptide translocation before illumination
# [2] = target: T1, TAP (core-TAP1mVenus/core-TAP2mCerulean containing crude membranes from Pichia pastoris) (Homo sapiens, UniProt Q03518+Q03519); test: Filter-based peptide competition assay; type: binding; details: 100 μM inhibitor; illumination at 365 nm
# T1 sequence (Q03518 167-748 limits assumed): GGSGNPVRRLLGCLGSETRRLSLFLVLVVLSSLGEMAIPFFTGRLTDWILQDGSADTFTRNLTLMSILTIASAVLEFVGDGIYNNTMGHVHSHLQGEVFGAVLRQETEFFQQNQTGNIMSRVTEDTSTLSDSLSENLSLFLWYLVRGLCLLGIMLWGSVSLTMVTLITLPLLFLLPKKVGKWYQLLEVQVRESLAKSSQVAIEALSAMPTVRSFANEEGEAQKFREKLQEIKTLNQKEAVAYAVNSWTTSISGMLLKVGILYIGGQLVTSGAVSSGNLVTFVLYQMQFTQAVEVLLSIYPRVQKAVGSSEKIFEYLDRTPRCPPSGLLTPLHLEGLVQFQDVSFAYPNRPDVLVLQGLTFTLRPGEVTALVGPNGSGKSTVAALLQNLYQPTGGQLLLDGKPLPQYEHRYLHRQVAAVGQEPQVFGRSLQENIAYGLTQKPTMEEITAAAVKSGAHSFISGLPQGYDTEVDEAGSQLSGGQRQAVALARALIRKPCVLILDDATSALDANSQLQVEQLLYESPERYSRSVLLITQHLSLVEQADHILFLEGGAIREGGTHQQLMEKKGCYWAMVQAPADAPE
# T1 sequence (Q03519 125-686 limits assumed): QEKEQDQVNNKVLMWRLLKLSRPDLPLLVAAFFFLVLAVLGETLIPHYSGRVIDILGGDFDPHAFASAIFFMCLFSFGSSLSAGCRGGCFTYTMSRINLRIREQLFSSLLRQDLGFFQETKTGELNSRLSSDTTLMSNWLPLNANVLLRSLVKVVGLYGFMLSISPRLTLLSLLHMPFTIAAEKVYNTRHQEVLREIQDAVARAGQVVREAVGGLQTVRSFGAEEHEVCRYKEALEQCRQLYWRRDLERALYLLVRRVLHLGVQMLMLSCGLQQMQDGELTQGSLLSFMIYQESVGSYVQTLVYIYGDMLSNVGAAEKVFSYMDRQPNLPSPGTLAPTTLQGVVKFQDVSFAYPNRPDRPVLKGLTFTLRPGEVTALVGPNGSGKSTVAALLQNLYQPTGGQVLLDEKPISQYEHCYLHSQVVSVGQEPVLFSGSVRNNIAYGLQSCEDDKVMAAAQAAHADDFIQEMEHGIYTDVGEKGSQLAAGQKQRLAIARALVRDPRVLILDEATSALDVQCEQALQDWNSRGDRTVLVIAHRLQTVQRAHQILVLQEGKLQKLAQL
# Chain of TAP (Q03518 whole entry): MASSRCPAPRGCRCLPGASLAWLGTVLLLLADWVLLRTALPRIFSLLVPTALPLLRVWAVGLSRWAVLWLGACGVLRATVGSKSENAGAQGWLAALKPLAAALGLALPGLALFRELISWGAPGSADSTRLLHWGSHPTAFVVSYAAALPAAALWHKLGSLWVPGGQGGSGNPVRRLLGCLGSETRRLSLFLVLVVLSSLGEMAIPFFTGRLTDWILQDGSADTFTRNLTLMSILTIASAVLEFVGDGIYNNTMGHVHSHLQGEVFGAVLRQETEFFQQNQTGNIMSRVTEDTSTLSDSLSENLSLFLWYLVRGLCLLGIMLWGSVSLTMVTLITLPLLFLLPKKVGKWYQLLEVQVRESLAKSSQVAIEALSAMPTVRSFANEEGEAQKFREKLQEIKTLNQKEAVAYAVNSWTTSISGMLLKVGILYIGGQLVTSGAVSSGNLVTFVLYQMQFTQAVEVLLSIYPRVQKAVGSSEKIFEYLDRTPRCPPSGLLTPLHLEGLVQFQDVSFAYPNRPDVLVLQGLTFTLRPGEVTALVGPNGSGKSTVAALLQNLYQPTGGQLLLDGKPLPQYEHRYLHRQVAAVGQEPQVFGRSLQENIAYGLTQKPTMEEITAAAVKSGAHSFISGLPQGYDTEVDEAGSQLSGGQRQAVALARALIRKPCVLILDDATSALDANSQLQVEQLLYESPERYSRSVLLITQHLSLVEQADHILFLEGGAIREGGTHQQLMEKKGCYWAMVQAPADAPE
# Chain of TAP (Q03519 whole entry): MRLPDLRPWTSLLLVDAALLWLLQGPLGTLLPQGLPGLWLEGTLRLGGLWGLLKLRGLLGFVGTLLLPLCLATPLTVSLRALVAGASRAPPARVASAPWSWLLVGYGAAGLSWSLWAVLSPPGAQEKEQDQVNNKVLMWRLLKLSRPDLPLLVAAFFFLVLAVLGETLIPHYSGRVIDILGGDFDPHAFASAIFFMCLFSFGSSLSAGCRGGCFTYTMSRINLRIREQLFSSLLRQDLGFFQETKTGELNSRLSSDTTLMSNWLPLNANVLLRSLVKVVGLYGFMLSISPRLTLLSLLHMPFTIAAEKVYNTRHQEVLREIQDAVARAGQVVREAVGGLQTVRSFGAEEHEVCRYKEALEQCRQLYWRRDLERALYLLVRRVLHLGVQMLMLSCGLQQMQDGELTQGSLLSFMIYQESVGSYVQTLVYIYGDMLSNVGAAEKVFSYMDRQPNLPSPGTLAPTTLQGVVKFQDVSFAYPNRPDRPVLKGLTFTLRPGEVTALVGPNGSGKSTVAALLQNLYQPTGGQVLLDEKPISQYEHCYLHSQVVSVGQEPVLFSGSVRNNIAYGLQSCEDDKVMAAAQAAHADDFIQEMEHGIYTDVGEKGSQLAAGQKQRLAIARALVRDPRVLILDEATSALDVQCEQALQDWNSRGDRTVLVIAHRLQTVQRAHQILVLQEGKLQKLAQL
# Chain of TAP (O15533 21-448 partner): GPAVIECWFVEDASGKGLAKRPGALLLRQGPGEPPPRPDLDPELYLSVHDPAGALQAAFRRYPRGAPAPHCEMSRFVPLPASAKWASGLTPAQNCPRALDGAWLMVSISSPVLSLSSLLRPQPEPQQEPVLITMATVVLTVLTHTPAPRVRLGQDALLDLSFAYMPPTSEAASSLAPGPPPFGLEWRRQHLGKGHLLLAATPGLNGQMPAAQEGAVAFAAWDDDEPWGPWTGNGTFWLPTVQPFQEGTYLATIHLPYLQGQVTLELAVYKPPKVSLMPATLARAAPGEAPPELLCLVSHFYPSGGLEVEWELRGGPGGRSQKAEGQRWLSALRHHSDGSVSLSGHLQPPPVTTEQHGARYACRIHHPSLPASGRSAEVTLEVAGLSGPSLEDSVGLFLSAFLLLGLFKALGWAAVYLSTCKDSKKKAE
# Chain of TAP (P30101 25-505 partner): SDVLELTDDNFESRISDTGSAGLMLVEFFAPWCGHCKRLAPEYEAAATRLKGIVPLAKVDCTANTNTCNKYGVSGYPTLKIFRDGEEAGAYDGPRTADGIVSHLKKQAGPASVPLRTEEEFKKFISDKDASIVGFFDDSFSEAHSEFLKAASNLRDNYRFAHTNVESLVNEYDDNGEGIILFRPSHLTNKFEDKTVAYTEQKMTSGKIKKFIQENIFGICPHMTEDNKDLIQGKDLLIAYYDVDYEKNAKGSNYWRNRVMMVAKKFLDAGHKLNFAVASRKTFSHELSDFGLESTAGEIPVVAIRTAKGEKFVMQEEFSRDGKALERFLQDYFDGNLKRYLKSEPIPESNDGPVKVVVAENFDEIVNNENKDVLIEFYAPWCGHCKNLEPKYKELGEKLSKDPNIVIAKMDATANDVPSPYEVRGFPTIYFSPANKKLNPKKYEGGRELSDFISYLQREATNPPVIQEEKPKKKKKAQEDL
structure (smiles),measurement,setting,value
CC[C@H](C)[C@H](NC(=O)[C@H](CCC(=O)O)NC(=O)[C@H](CC(=O)O)NC(=O)[C@H](CCCNC(=N)N)NC(=O)[C@@H](NC(=O)[C@H](CC(=O)O)NC(=O)[C@H](C)NC(=O)[C@H](Cc1ccc(O)cc1)NC(=O)[C@@H](NC(=O)[C@H](CCCNC(=N)N)NC(=O)[C@@H]1CCCN1C(=O)CNC(=O)[C@@H](NC(=O)[C@H](CCCNC(=N)N)NC(=O)[C@H](CCSC)NC(=O)[C@H](CC(N)=O)NC(=O)[C@H](CC(=O)O)NC(=O)[C@H](CC(C)C)NC(=O)[C@H](Cc1ccccc1)NC(=O)[C@@H](NC(=O)[C@H](CC(=O)O)NC(=O)[C@H](C)NC(=O)[C@H](CCSC)NC(=O)[C@H](CCC(=O)O)NC(=O)[C@H](CC(C)C)NC(=O)[C@H](C)NC(=O)[C@H](Cc1c[nH]c2ccccc12)NC(=O)[C@@H](N)CO)[C@@H](C)O)C(C)C)[C@@H](C)O)C(C)C)C(=O)N[C@@H](CC(N)=O)C(=O)N[C@@H](CCCCN)C(=O)N[C@@H](CCCNC(=N)N)C(=O)NCC(=O)N[C@@H](CCCNC(=N)N)C(=O)O [ICP47_2–34],inhibition at 5 µM,[1],> 85%
same,effect of illumination on TAP peptide binding blocked by inhibitor,[2],not affected by illumination; also recorded: did not recover the TAP activity
